Assay results reported in patent publication US20240156973A1, “OSTEOTROPIC COMPOSITIONS AND USES THEREOF” (Purdue Research Foundation, priority 2021, published 2024).

Key:
[1] = target: T1, Thrombopoietin Receptor (TPOR) (Homo sapiens, UniProt P40238); settings: TPOR binding; cysteine-containing peptides in cyclic form; cited from earlier work
T1 sequence (P40238 26-491 limits assumed): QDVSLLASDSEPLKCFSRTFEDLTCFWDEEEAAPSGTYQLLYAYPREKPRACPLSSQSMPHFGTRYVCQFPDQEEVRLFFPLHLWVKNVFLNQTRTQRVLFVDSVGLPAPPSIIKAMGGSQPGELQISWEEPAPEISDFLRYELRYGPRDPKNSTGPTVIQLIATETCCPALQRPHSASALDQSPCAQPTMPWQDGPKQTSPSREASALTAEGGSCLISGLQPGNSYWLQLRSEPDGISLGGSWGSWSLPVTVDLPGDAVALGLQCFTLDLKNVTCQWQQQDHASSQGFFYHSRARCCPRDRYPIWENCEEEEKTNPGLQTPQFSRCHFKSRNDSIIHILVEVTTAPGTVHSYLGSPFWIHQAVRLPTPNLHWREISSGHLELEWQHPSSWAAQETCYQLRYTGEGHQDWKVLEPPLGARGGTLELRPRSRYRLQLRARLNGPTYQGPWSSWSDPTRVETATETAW

[2] = tested on: female Swiss Webster mice with midshaft femur fractures; experiment: Midshaft femur fracture healing, micro-CT of fracture callus; assay type: in vivo; settings: three weeks
Protocol: Fracture healing was assessed using micro-CT (Scanco Medical Ag or PerkinElmer). […] Morphometric parameters were quantified in an ROI that included just the fracture callus. […] Statistical analysis was performed using a one-way analysis of variance (ANOVA) and a Dunnett's post-hoc analysis with significance reported at the P value of 0.05. All animal experiments were performed in accordance with protocols approved by Purdue University's Institutional Animal Care and Use Committee (IACUC).

[3] = tested on: male C57BL/6 mice with surgically induced femoral fracture; experiment: Surgically induced femoral fracture, X-ray and ex vivo µCT of callus; assay type: in vivo
Protocol: FIG. 14A are representative μCT images of femurs 3 weeks post-surgery from 12-week-old C57BL/6 male mice that underwent a surgically created fracture and received 3×/wk injection of targeted SRT1720 (SRT1720-Aspartic Acid Oligopeptide described herein; SQ, 6 mg/kg/dose) or vehicle control.
FIG. 14B is a bar graph showing μCT analysis of the mineralized callus volume (BV/TV) for each treatment group ([…], 2, 6, and 20 mg/kg/dose),
FIG. 14C is a bar graph showing μtCT analysis of the callus trabecular thickness (Tb.Th) within the callus region for each treatment group.
(§1) Weekly X-rays were used to examine healing progression. Prior to euthanasia, mice underwent behavioral testing to measure evoked pain behaviors, Upon euthanasia, ex vivo μCT imaging (FIGS. 14A-14C) and analysis was completed to assess fracture callus size and composition.

[4] = tested on: male C57BL/6 mice with surgically induced femoral fracture; experiment: Von Frey testing of evoked pain behavior after femoral fracture; assay type: in vivo
Protocol: FIG. 15 is bar graphs for 12-week-old C57BL/6 male mice that underwent a surgically created fracture and received 3×/wk injection of targeted SRT1720 (SQ, 2, 6, and 20 mg/kg/dose) or vehicle control.
as §1

[5] = 6 mg/kg, 3x/week, 3 weeks, p<0.05
[6] = all doses (2, 6, 20 mg/kg, 3x/week), 3 weeks post-surgery

Question: With GRVBDQIMLSLGG [AF12191] as the compound, how does the IC50 [1] read?
Answer: The IC50 was 20000 nM.

Question: Which IC50 [1] does the source give for GGCADGPTLREWISFCGG [AF12193] here?
Answer: Its IC50 is 60 nM.

Question: Which IC50 [1] does the source give for IEGPTLRQWLAARA [AF12505] here?
Answer: The IC50 was 2 nM.

Question: Which IC50 [1] does the source give for GGCTLREWLHGGFCGG [AF12192] here?
Answer: Its IC50 is 200 nM.

Question: With LAIEGPTLRQWLHGNGPDT [AF12434] as the compound, how does the IC50 [1] read?
Answer: The IC50 was 20 nM.

Question: For TIKGFTLRQWLKSREHTS [AF12405], which IC50 [1] is on record?
Answer: The IC50 was 50 nM.

Question: Which IC50 [1] does the source give for GNADGPTLRQWLEGRRPKN [AF12359] here?
Answer: Its IC50 is 66 nM.

Question: Which results are given for “Ile-Glu-Gly-Pro-Thr-Leu-Arg-Gln-Npa-Leu-Ala-Ala-Arg-Sar [TMP]”?
Answer: bone volume, dose-response shape ([2]; untargeted TMP daily 0.1, 1 and 10 nmol s.c.): parabolic dosing window; callus bone volume/total volume, dose-response shape ([2]; untargeted TMP daily 3.3, 33 and 330 nmol/kg s.c.): parabolic dosing window; dose with maximum response on callus mineralization (bone volume) ([2]; untargeted TMP daily s.c.): 1 nmol/day; dose with maximum response on callus mineralization (bone volume/total volume) ([2]; untargeted TMP daily s.c.): 33 nmol/kg

Question: For “IEGPTLRQWLAARA-K-β-Ala-IEGPTLRQWLAARA [AF13948]”, which IC50 [1] is on record?
Answer: The IC50 was 0.5 nM.

Question: Which bone healing ([3]; 6 mg/kg, 3x/week, 3 weeks) does the source give for `O=C(Nc1ccccc1-c1cn2c(CN3CCNCC3)csc2n1)c1cnc2ccccc2n1` [SRT1720] here?
Answer: The bone healing was “accelerated bone healing”.

Question: And the mineralized callus volume [3, 5]?
Answer: Its mineralized callus volume is “significant increase in mineralized callus volume”.

Question: What about the bone healing ([3]; all doses (2, 6, 20 mg/kg, 3x/week, 3 weeks)) of the same compound?
Answer: The bone healing was “improved healing”.

Question: What about the “paw withdrawal thresholds (evoked responses to tactile stimulus)” value (“paw withdrawal thresholds” below) [4, 5] of the same compound?
Answer: The value was “more robust and significant improvement”.

Question: What about the “paw withdrawal thresholds” value [4, 6] of the same compound?
Answer: The value was “increased paw withdrawal thresholds”.

Question: With `N[C@@H](CCC(=O)O)C(=O)N[C@@H](CCC(=O)O)C(=O)N[C@@H](CCC(=O)O)C(=O)N[C@@H](CCC(=O)O)C(=O)N[C@@H](CCC(=O)O)C(=O)N[C@@H](CCC(=O)O)C(=O)N[C@@H](CCC(=O)O)C(=O)N[C@@H](CCC(=O)O)C(=O)N[C@@H](CCC(=O)O)C(=O)N[C@@H](CCC(=O)O)C(=O)N[C@@H](CSSCCOC(=O)N1CCN(Cc2csc3nc(-c4ccccc4NC(=O)c4cnc5ccccc5n4)cn23)CC1)C(=O)O` [targeted SRT1720] as the compound, how does the “paw withdrawal thresholds” value [4, 6] read?
Answer: Its value is “improved mN forces”.
